Laboratory results: patent US10961202B2, “Bis-benzimidazole compounds and methods of using the same” (THE SCRIPPS RESEARCH INSTITUTE, priority 2017, dated 2021)

Test system: r(CUG)12-MBNL1 complex
Experiment: Inhibition of the r(CUG)12-MBNL1 complex measured by TR-FRET
Format: biochemical
Conditions: Table M; 80 nM RNA, 60 nM MBNL1-His6

Row | IC50 [µM] | SMILES
1 | 28.8 | [N-]=[N+]=NCCCOc1ccc(-c2nc3cc(-c4ccc5[nH]c(-c6ccc(OCCCN)cc6)nc5c4)ccc3[nH]2)cc1 [Compound 379]
2 | 16.7 | NCCCOc1ccc(-c2nc3cc(-c4ccc5[nH]c(-c6ccc(O)cc6)nc5c4)ccc3[nH]2)cc1 [Compound 380]
3 | 49.9 | CN(C)CCSc1ccc(-c2nc3cc(-c4ccc5[nH]c(-c6ccc(SCCN(C)C)cc6)nc5c4)ccc3[nH]2)cc1 [Compound 381]
4 | 17.4 | CN(C)CCNC(=O)c1ccc(-c2nc3cc(-c4ccc5[nH]c(-c6ccc(OCCN(C)C)cc6)nc5c4)ccc3[nH]2)cc1 [Compound 382]
5 | 41.6 | CN(C)CCCSc1ccc(-c2nc3cc(-c4ccc5[nH]c(-c6ccc(SCCCN(C)C)cc6)nc5c4)ccc3[nH]2)cc1 [Compound 383]
6 | 31.2 | CN(C)CCCCc1ccc(-c2nc3cc(-c4ccc5[nH]c(-c6ccc(CCCCN(C)C)cc6)nc5c4)ccc3[nH]2)cc1 [Compound 385]
7 | 46.4 | CN(C)CCC#Cc1ccc(-c2nc3cc(-c4ccc5[nH]c(-c6ccc(C#CCCN(C)C)cc6)nc5c4)ccc3[nH]2)cc1 [Compound 386]
8 | 8.86 | CN(C)CCCSc1ccc(-c2nc3cc(-c4ccc5[nH]c(-c6ccc(C(=O)NCCN(C)C)cc6)nc5c4)ccc3[nH]2)cc1 [Compound 387]
9 | 30.2 | C[C@H](CN(C)C)NC(=O)c1ccc(-c2nc3cc(-c4ccc5[nH]c(-c6ccc(C(=O)N[C@H](C)CN(C)C)cc6)nc5c4)ccc3[nH]2)cc1 [Compound 388]
10 | 34.2 | C[C@@H](CN(C)C)NC(=O)c1ccc(-c2nc3cc(-c4ccc5[nH]c(-c6ccc(C(=O)N[C@@H](C)CN(C)C)cc6)nc5c4)ccc3[nH]2)cc1 [Compound 389]
11 | > 200 | CN(C)CCNC(=O)c1ccc(-c2nc3cc(-c4ccc5[nH]c(-c6ccc(C(=O)O)cc6)nc5c4)ccc3[nH]2)cc1 [Compound 390, 4-(2′-(4-((2-(dimethylamino)ethyl)carbamoyl)phenyl)-3H,3′H-[5,5′-bibenzo[d]imidazol]-2-yl)benzoic acid]
12 | 18.4 | COCCCOc1ccc(-c2nc3cc(-c4ccc5[nH]c(-c6ccc(C(=O)NCCN(C)C)cc6)nc5c4)ccc3[nH]2)cc1 [Compound 391]
13 | 18.3 | CCCCCOc1ccc(-c2nc3cc(-c4ccc5[nH]c(-c6ccc(C(=O)NCCN(C)C)cc6)nc5c4)ccc3[nH]2)cc1 [Compound 392]
14 | 19 | CN(C)CCNC(=O)c1ccc(-c2nc3cc(-c4ccc5[nH]c(-c6ccc(OCCCC#N)cc6)nc5c4)ccc3[nH]2)cc1 [Compound 394]
15 | > 200 | CN(C)CCCOc1ccc(-c2nc3cc(-c4ccc(C(=O)NCCN(C)CCN)cc4)ccc3[nH]2)cc1 [Compound 395]
16 | > 200 | CC(=O)NCCN(C)CCNC(=O)c1ccc(-c2ccc3[nH]c(-c4ccc(OCCCN(C)C)cc4)nc3c2)cc1 [Compound 396]
17 | 12.2 | CN(C)CCNC(=O)c1ccc(-c2nc3cc(-c4ccc5[nH]c(-c6ccc(C(=O)NCCOCCOCCOCCOCCN=[N+]=[N-])cc6)nc5c4)ccc3[nH]2)cc1 [Compound 397]
18 | 14.7 | CN(C)CCNC(=O)c1ccc(-c2nc3cc(-c4ccc5[nH]c(-c6ccc(C(=O)NCCOCCOCCN=[N+]=[N-])cc6)nc5c4)ccc3[nH]2)cc1 [Compound 398]
19 | 9.6 | CN(C)CCNC(=O)c1ccc(-c2nc3cc(-c4ccc5[nH]c(-c6ccc(C(=O)NCCCN=[N+]=[N-])cc6)nc5c4)ccc3[nH]2)cc1 [Compound 399]
20 | 14.8 | CN(C)CCCOc1ccc(-c2nc3cc(-c4ccc5[nH]c(-c6ccc(C(=O)NCCCN=[N+]=[N-])cc6)nc5c4)ccc3[nH]2)cc1 [Compound 400]
21 | 110 | C[C@@H](NC(=O)CNCCCn1cc(CCCCN(C)CCNC(=O)CCCOc2ccc3[nH]c(-c4ccc(-c5nc6cc(OCCCN(C)C)ccc6[nH]5)cc4)nc3c2)nn1)C(=O)N[C@H](C)C(=O)N[C@H](C)C(=O)N[C@H](C)C(=O)N(CCCn1cc(CCCCN(C)CCNC(=O)CCCOc2ccc3[nH]c(-c4ccc(-c5nc6cc(OCCCN(C)C)ccc6[nH]5)cc4)nc3c2)nn1)CC(N)=O [Compound 407]
